# Assay results from EP1095657A2, “Compositions for the regulation of cytokine activity” (priority 1992, dated 1994).
# Marks after values point to notes of the source that are not given here.
# What was measured:
# [1] = test system: experimental DTH reaction in mice; assay: In vivo bioassay of inhibition of experimental DTH reactivity (oxazolone ear swelling); design: species or system mice (BALB/c or CD1); conditions: for DTH: at that dose, value in parentheses in the cell taken as positive control, not reported; for DTH Response: at the dose giving Inhmax
# Description: Groups of inbred BALB/c (Jackson Laboratories, Bar Harbor, ME) or of outbred CD1 (Weizmann Institute Animal Breeding Center, Rehovot, Israel) mice are sensitized on the shaved abdominal skin with 100 µl of 2% oxazolone (OX) in acetone/olive oil (4/1, v/v) applied topically. DTH sensitivity is elicited 5 days later as follows: mice are challenged with 20 µl of 0.5% OX (10 µl administered topically to each side of the ear) in acetone/olive oil. A constant area of the ear is measured immediately before challenge and 24 and 48 h later with a Mitutoyo engineer's micrometer. The individual measuring ear swelling is blinded to the identity of the groups of mice. The increment (△) of ear swelling is expressed as the mean in units of 10^-2 mm or 10^-4 inch (+SE) depending on the micrometer that is used. Percent inhibition is calculated as follows: %Inhibition= 1-((Treated-negative control)/(positive control-negative control)) [formula]
# Mice are treated with LMWH as in Example 5.1, injected the day before primary sensitization to OX. On the fifth day after sensitization to OX, the mice are challenged to induce a DTH reaction, as described above.
# The positive control is the DTH reaction elicited in immunized mice in the absence of treatment with LMWH. The negative control is the background swelling produced by the antigen in naive (non-immunized) mice.
# BALB/c mice (at least 5 mice per group) were sensitized on the shaved abdomen with 3% 4-ethoxymethylene-2-phenyl oxazolone (OX; BDH Chemicals, GB) in acetone/olive oil applied topically. DTH sensitivity was elicited 5 days later as follows. Mice were challenged with 0.5% OX in acetone/olive oil. The ear was measured immediately before challenge and 24 h later with Mitutoyo engineer's micrometer (Japan). The individual measuring the swelling of the ear was blinded to the identity of the groups of mice. To interfere with DTH response, the low molecular weight immuno-regulatory fractions, diluted in PBS, were administrated subcutaneously into the back of the treated mice at the indicated time schedules and concentrations. Treated mice were inspected during and after (>2 months) the treatment and no major side-effects were observed clinically.
# In particular, CD1 mice (available from the Weizmann Institute Animal Breeding Center, Rehovot, Israel), 4-12 mice per group, were treated as described in Section 5.2 or 6.8.
# [2] = test system: adjuvant arthritis in Lewis rats; assay: Adjuvant arthritis (AA) in rats; format: in vivo
# [3] = test system: secretion of active TNF-α by activated human CD4+ T cells; assay: Bioassay of TNF-α activity using human CD4+ T cells derived from PBLs (human PBL bioassay); conditions: for Bioassay of TNF Activity, in words: conc range of 1 µg/ml - 0.01 pg/ml, inconsistent = not the same result in all three bioassays
# [4] = test system: LPS-induced inflammation of the cornea; assay: LPS-induced inflammation of the rat cornea; format: in vivo, Lewis rats
# Description: LPS-induced inflammation of the cornea is TNF dependent, as shown by the work of Vanderhagen, C. and co-workers in the Netherlands, "Kinetics of Intraocular TNF and IL-6 in Endotoxin-Induced Uveitis in the Rat," submitted for publication. Using a 30-gauge needle, LPS (5 ng) was injected into the cornea of Lewis rats. After one day, separate groups of rats, 2 to a group (or 4 eyes to a group), were then injected subcutaneously with phosphate-buffered saline (0.05 ml) or H-1020 (at a dose of either 50 ng/rat or 200 ng/rat). The effects, if any, were scored as follows:
# in which the sum of the points is used as the total score.
# [5] = test system: ICAM-1; assay: TNF-α-induced expression of adhesion molecules by endothelial cells (ELISA); conditions: 1 h pretreatment of EC, TNFα alone 2.2±0.2
# [6] = test system: experimental DTH reaction in mice; assay: In vivo bioassay of inhibition of experimental DTH reactivity (oxazolone ear swelling); design: species or system mice (BALB/c or CD1); conditions: inhibitory; administered orally
# [7] = test system: ELAM-1; assay: TNF-α-induced expression of adhesion molecules by endothelial cells (ELISA); conditions: for Recombinant human TNFα-induced adhesion molecules (O.D 492): 1 h pretreatment of EC, TNFα alone 1.2±0.1
# [8] = test system: IDDM of NOD mice; assay: Insulin dependent diabetes mellitus (IDDM) of NOD mice; format: in vivo
# [9] = test system: mortality after gamma irradiation; assay: Radioprotective effect in gamma-irradiated mice; format: in vivo, BALB/c mice
# Description: Groups of female BALB/c mice, 8 weeks old, 5-10 mice per group, were injected subcutaneously with either saline (0.1 ml, control), H-9392 (30 ng/mouse), or glucosamine (10,000 ng/mouse) 1 day before irradiation, and weekly thereafter until termination of the experiment on day 30. All the mice were irradiated to a dose of 700 rads using a ^60Co gamma radiation source.
# In a separate experiment, groups of BALB/c mice (5 mice to a group) were likewise exposed to 750 rads of gamma-rays, except that these groups of mice were treated with test substances (saline at 0.1 ml per mouse; H-9392 at 0.3, 3, 30 and 300 ng/mouse; and glucosamine at 1, 10 and 100 µg/mouse) on the day before irradiation, on the sixth day after irradiation, and once again on the thirteenth day after irradiation only. All treatment ceased after the third and last administration.
# [10] = CD1 mice, s.c., dose giving Inhmax in the higher effective dose range
# [11] = CD1 mice, s.c., higher effective dose range
# [12] = CD1 mice, s.c., inhibitory, 0 = no effect
smiles,measurement,setting,value
"N[C@H]1C(O)O[C@H](CO)[C@H](O)[C@@H]1O (stereo partly drawn) [GalN, D-Galactosamine]",Inhmax,"[1]; CD1 mice, s.c.",50%
same,Dose,[1]; [10],0.12 µg/gm
same,"""R"" value",[1]; [11],5.58 x 10^2 % x (µg/gm)^-1
same,Inhmax,[1]; [11],67%
same,"""R"" value",[1]; [12],1.25 x 10^6 % x (μg/gm)^-1
same,"effect on AA, in words","[2]; s.c. weekly, different dosages (FIG. 38C)",inhibitory effects but to a much lesser degree than that shown by glucosamine
"CC(=O)N[C@H]1C(O)O[C@H](CO)[C@@H](O[C@@H]2OC(C(=O)O)=C[C@H](O)[C@H]2O)[C@@H]1O (stereo partly drawn) [H-0895, 4-deoxy-4-en-iduronic acid-(α-1,4)-2-deoxy-2-N-acetylglucosamine]","Bioassay of TNF Activity, in words",[3],Inconsistent
same,"Inhmax column, value printed with +: augmentation of the DTH swelling","[1]; CD1 mice, s.c.",+92%
same,dose giving the augmenting effect on swelling,"[1]; CD1 mice, s.c.",about 1.2 picograms disaccharide per gram mouse
same,DTH,"[1]; CD1 mice, s.c.",37.3 ± 0.7 (18.9 ± 0.7) 10^-2 mm
same,"AA score against control, in words","[2]; 0.1 and 0.4 ng/rat s.c. weekly, day 24",not substantially different from control levels
same,"effect on AA, in words","[2]; 0.1 and 0.4 ng/rat s.c. weekly, within about 2 weeks of induction",increased level of AA development
"O=C(O)C1=C[C@H](O)[C@@H](O)[C@H](O[C@H]2[C@H](O)[C@@H](NS(=O)(=O)O)C(O)O[C@@H]2COS(=O)(=O)O)O1 (stereo partly drawn) [H-1020, 4-deoxy-4-en-iduronic acid-(α-1,4)-2-deoxy-2-N-sulfate-6-O-sulfateglucosamine]","effect on the LPS-induced inflammation score, in words",[4]; 50 ng/rat s.c. one day after LPS,effective to suppress the effects of the local LPS-induced inflammation
same,"effect on the LPS-induced inflammation score, in words",[4]; 200 ng/rat s.c. one day after LPS,failed to provide a significant effect
same,conc,[3]; concentration that gave the Inhmax or Augmax of the same line,1 pg/mL
same,Recombinant human TNFα-induced adhesion molecules (O.D 492),"[5]; 50 pg/ml, no TNFα 0.18±0.01",1.2±0.1 O.D 492
same,Recombinant human TNFα-induced adhesion molecules (O.D 492),[5]; 100 pg/ml,1.5±0.07 O.D 492
same,Inhmax,"[1]; CD1 mice, s.c.",66%
same,DTH,"[1]; CD1 mice, s.c.",6.7 ± 1.1 (19.6 ± 1.2) 10^-2 mm
same,"""R"" value",[1]; [12],1.65 x 10^5 % x (μg/gm)^-1
same,DTH Response,[1]; administered orally,5.9 ± 0.9 10^-2mm
same,DTH Response,[1]; subcutaneous,4.7 ± 0.7 10^-2mm
same,Dose,"[1]; dose giving Inhmax, administered orally",0.128^a µg/gm mouse
same,Dose,"[1]; dose giving Inhmax, subcutaneous",0.0005 µg/gm mouse
same,"""R"" value","[1]; inhibitory, maximum % inhibition of DTH divided by the dose giving it, s.c., 0 = no effect","146,000 % x (µg/gm)^-1"
same,Inhmax,"[1]; maximum inhibition of DTH, administered orally",68%
same,Inhmax,"[1]; maximum inhibition of DTH, subcutaneous",73%
same,inhibition of the development of AA relative to control,"[2]; s.c. weekly from 1 day before induction, day 24, dose not given",about 30%
same,"""R"" value",[6],531 % x (µg/gm)^-1
same,Recombinant human TNFα-induced adhesion molecules (O.D 492),"[7]; 50 pg/ml, no TNFα 0.12±0.01",0.7±0.05 O.D 492
same,Recombinant human TNFα-induced adhesion molecules (O.D 492),[7]; 100 pg/ml,0.9±0.03 O.D 492
same,inhibition of the up regulation of EC expression of adhesion molecules induced by TNF-α,[7]; ELAM-1 and ICAM-1 not told apart in the sentence,up to 50%
C[C@@H]1C[C@H]2[C@@H]3CCC4=CC(=O)C=C[C@]4(C)[C@@]3(F)[C@@H](O)C[C@]2(C)[C@@]1(O)C(=O)COP(=O)(O)O [dexamethasone phosphate],"course of AA after treatment has ended, in words",[2]; 100 µg per rat s.c. daily from day 12,suffered a relapse
same,"effect on AA at 30 days post-induction, in words","[2]; weekly s.c. from day 12 to day 26, 120 ng disaccharide or 100 µg dexamethasone phosphate per rat",only a moderate reduction in the severity of the AA score
"N[C@H]1C(O)O[C@H](CO)[C@@H](O)[C@@H]1O (stereo partly drawn) [GlcN, 2-amino-2-deoxy-D-glucose]",mice that had become diabetic,"[8]; at 4.5 months, H-9392 30 ng/mouse, glucosamine 10,000 ng/mouse s.c., all control mice diabetic",about 65%
same,"mice that had died, in words","[8]; by age 5 months, H-9392 30 ng, glucosamine 10,000 ng, all control mice had died",about half
same,mortality rate,"[9]; 700 rads, by day 30, s.c. 1 day before irradiation and weekly, H-9392 30 ng/mouse, glucosamine 10,000 ng/mouse, saline 100%",20%
same,"activity in suppressing mortality after irradiation, in words","[9]; 750 rads, three administrations, 300 ng H-9392, 1 µg glucosamine",moderate activity in suppressing mortality
same,Inhmax,"[1]; CD1 mice, s.c.",75%
same,Dose,[1]; [10],0.4 µg/gm
same,"""R"" value",[1]; [11],2.2 x 10^2 % x (µg/gm)^-1
same,Inhmax,[1]; [11],88%
same,"""R"" value",[1]; [12],6.25 x 10^6 % x (μg/gm)^-1
same,"inhibition of the development of AA, of control levels","[2]; s.c. weekly, three dosage levels",60-80%
CC(=O)N[C@H]1C(O)O[C@H](COS(=O)(=O)O)[C@@H](O[C@@H]2OC(C(=O)O)=C[C@H](O)[C@H]2O)[C@@H]1O (some centres unmarked) [H-8642],"Bioassay of TNF Activity, in words",[3],Inconsistent
same,"effect on the experimental DTH reaction, in words (disaccharide markers)","[1]; CD1 mice, s.c.",N.E.
same,"""R"" value",[1]; [12],0 % x (μg/gm)^-1
